# Results reported in publication PMC12040169 (PLOS Biology, 2025).
# Experiment: in vitro
# Settings: human, hela cells, % viability
row,SMILES,"viability at 28.5 h, 10 µM [%]"
1,CCOc1cc(OCC)cc(C(=O)N2CCC3(CC2)CC(=O)c2cc(OCC)ccc2O3)c1 [CBK168013],87.2
2,COc1ccc(-c2nc(NC(=O)Cc3ccc(N(C)C)cc3)cnc2-c2ccc(F)cc2)cn1 [CBK037582],97.9
3,Nc1ncnc(NCCc2ccc(S(N)(=O)=O)cc2)c1[N+](=O)[O-] [CBK267320],86.4
4,CC1CCCCN1CCCNc1cc(NS(=O)(=O)c2cn(C)cn2)cc2ccoc12 (stereo not shown) [CBK067940C],94.5
5,OCCSCc1ccc2nonc2c1 [CBK020617],107
6,Cc1ccc(-c2nc(C)sc2CC(=O)N(C)CCN(C)C)cc1 [CBK282175],112
7,CCC(C)C(NC(=O)C1CCN(S(=O)(=O)c2ccc(OC)c(OC)c2)CC1)C(=O)O (stereo not shown) [CBK297140],90.7
8,CCCC/C=C/c1cncc(N(C)CCN(C)C)n1 [CBK065374],91.1
9,C=CCNC(=S)Nc1sc2c(c1C(=O)OCC)CC(C)CC2 (stereo not shown) [CBK268778],89.8
10,CC1(c2ccc(Br)cc2)NC(=O)CS1 (stereo not shown) [CBK018962],92.2
11,Cc1cccc(Oc2nc3c(C)cccn3c(=O)c2/C=C(\C#N)c2nc3ccccc3[nH]2)c1 [CBK266528],104
12,COC(=O)c1ccccc1OCCc1csc(NS(=O)(=O)c2cccc(Cl)c2C)n1 [CBK023735],116
13,O=C(c1ncc(F)cc1F)N1CCCCC1CN1CCOCC1 (stereo not shown) [CBK305482],102
14,Cn1c(CNC(=O)c2ccc(Cl)cc2)nnc1SCC(=O)c1ccc(Br)cc1 [CBK266145],88.4
15,C[C@H]1CN2C[C@H](O)CC2CN1Cc1cccn1-c1ccc(F)cc1 (stereo partly shown) [CBK285465],97.4
16,CC(NS(=O)(=O)c1cccc2c(S(=O)(=O)NC(C)c3ccccc3)cccc12)c1ccccc1 (stereo not shown) [CBK267717],83.6
17,Cc1nnc([C@H]2CCN(Cc3cccs3)C2)o1 [CBK289393],103
18,COc1cccc(CN(C)CCN(C)C)c1O [CBK261905],102
19,O=C(Nc1ccccc1[N+](=O)[O-])c1cc(S(=O)(=O)NCc2ccccc2)c(Cl)cc1Cl [CBK263240],91.5
20,COc1ccccc1CNCc1ccccn1 [CBK262261],89.4
21,Cc1cccc(NC(=O)CSc2nc(O)c3c(C)cc(C)nc3n2)c1 [CBK266179],90.5
22,CC(C)(C)c1ccc(C(=O)NC(=S)Nc2ccc(O)c(-c3nc4cc(Cl)ccc4o3)c2)cc1 [CBK264169],88

row,SMILES,"viability at 28.5 h, 10 µM [%]"
1,COc1cccc(C(=O)N2CCN(C(=O)Nc3ccc(C(F)(F)F)cc3)CC2)c1 [CBK154788],96.4
2,CN(C)CCSc1cncc(N2CCCC2)n1 [CBK105294],104
3,O=C(Cc1cccs1)N1CCC(O)(c2ccccn2)CC1 [CBK283587],96.4
4,N#CCCn1cc(C(=O)N2CCOCC2)c(-c2cc3ccccc3o2)n1 [CBK306203],104
5,Cc1nc(C)n(CCNC(=O)Cc2coc3cc(C)c(C)cc23)n1 [CBK282613],90.7
6,CCOC(=O)c1ccnc(-c2cc3ccccc3o2)c1 [CBK149253],101
7,CCCc1[nH]nc(O)c1CCc1ccccc1F [CBK075080],88.5
8,Cn1nccc1CNCc1c(Br)cc(F)c(F)c1N1CCCCC1 [CBK306284],92.8
9,CC(C)C(=O)N1CCN(C(=O)Cn2c(-c3ccc(Cl)cc3)n[nH]c2=S)CC1 [CBK297910],100
10,COc1ccc(C)c(NC(=O)NCCc2c[nH]cn2)c1 [CBK269992],88.8
11,O=C(NC1CCN(CC2(c3ccccc3)CC2)CC1)C1CCOCC1 [CBK285352],94.4
12,c1nc(OC2CCOC2)cc(N2CCCC2)n1 (stereo not shown) [CBK115899],88.4
13,CS(=O)(=O)N(CC(=O)Nc1ccccc1-c1ccccc1)c1ccc(F)c(Cl)c1 [CBK268539],91.2
14,CCOc1sc(=S)n(C)c1C(C)=O [CBK019515],88
15,COc1ccccc1CNCCCN1CCOCC1 [CBK278310C],96.2
16,N#Cc1nc(-c2ccco2)oc1N1CCN(C(=O)c2cc3c(s2)CCCCC3)CC1 [CBK240763],93.9
17,Cc1ccc(CCC(=O)N(CC(=O)O)C2CCOCC2)c(C)c1 [CBK304509],91.6
18,Cc1cc(COC(=O)c2nn(-c3ccc(F)cc3)c3c2CCCC3)on1 [CBK295305],105
19,Cn1cc(CN2CCOC[C@H]2c2nc(C(C)(C)C)c[nH]2)c2ccccc21 [CBK289322],118
20,Cc1ccccc1CSc1cccc(F)c1 [CBK002913],109
21,Cc1nc(C2CN(c3ccnc4c(F)cccc34)CCO2)no1 (stereo not shown) [CBK304464],80.7
22,OC(CNCc1ccc2c(c1)OCO2)CSc1ccccc1 (stereo not shown) [CBK074684],101

row,SMILES,"viability at 28.5 h, 10 µM [%]"
1,O=C(NCCc1cccs1)Nc1ccc(Cl)cc1C(F)(F)F [CBK044825],86.1
2,CCC(=O)N1CCC(c2cc(-c3cccc(F)c3)n(C)n2)CC1 [CBK282096],107
3,O=C1CN(c2nc(-c3ccncc3)nc3ccccc23)CCN1 [CBK305805],91.9
4,Cc1cc(NC(=O)c2cccc(C(F)(F)F)c2)nc2c1c(=O)oc1ccccc12 [CBK291163],101
5,Cc1nn(C)c(C)c1CN(C(=O)c1ccc(C)n(C)c1=O)C1CC1 [CBK281450],105
6,Cn1ccnc1C(NC(=O)C1CCCC1)c1ccc(F)c(F)c1 (stereo not shown) [CBK283784],97
7,COc1cc(NC(=O)N2CCN(CCc3ccccc3)CC2)cc(OC)c1OC [CBK158933],100
8,Cc1nn(C(C)CC(=O)N2CCCC(CN(C)C)C2)c(C)c1Cl (stereo not shown) [CBK282137],107
9,COc1ccc(C(=O)N2CCC3(CCCN(C(=O)Cn4cc(C)c(=O)[nH]c4=O)C3)C2)cc1OC (stereo not shown) [CBK137085],107
10,Cc1cc(C)c2nc(-c3ccccn3)cc(C(=O)NCc3cccs3)c2c1 [CBK267772],86.1
11,COc1cccc(C(=O)N2CCN(C(=O)Nc3ccsc3)CC2)c1 [CBK154782],91.5
12,CCc1ccc(CNC(=O)NC2CCCc3c2cnn3CCO)s1 (stereo not shown) [CBK305747],84.4
13,COc1ccc(NC(=O)C2CCCN2c2nc(O)cc(C(F)(F)F)n2)cc1 (stereo not shown) [CBK003704],77
14,CCN1C(=O)CC2(C1=O)C(=O)N(Cc1nnc(-c3ccc(C)cc3)o1)c1ccc(OC)cc12 (stereo not shown) [CBK075586],90.4
15,Cc1cn(C2CC(O)C(CO)O2)c(=O)nc1SCCC#N (stereo not shown) [CBK201201],97.5
16,O=C1C2N=NN(Cc3ccccc3)C2C(=O)N1C1CCCCC1 (stereo not shown) [CBK067389],115
17,O=C(O)c1cccc2c1C(=O)N(Cc1cccs1)C2 [CBK291246],95.3
18,CC1(C)CC(N(Cc2ccccc2)Cc2ncc[nH]2)CC(C)(C)N1 [CBK283179],95.2
19,COc1ccc([C@@]23CC[C@@H](NS(=O)(=O)c4cccc5cccnc45)C[C@@H]2N(C)CC3)cc1OC [CBK056849T],80.8
20,CCNc1nccnc1-c1ccccc1Cl [CBK037313],79.9
21,C[C@H](c1ccccc1)n1c(=O)[nH]c2ncc(-c3cncc4ccccc34)nc21 [CBK064709],90.4
22,Cc1cc(C)nc(-n2ncc(C#N)c2N)n1 [CBK270227],87

row,SMILES,"viability at 28.5 h, 10 µM [%]"
1,CC1(C)CC(=O)c2sc(NC(=O)c3cccc(N4C(=O)CCC4=O)c3)nc2C1 [CBK287565],111
2,CCOc1cc2c(cc1CN1CCN(Cc3noc(C)n3)CC1)CCC2 [CBK307138],83.1
3,CC1(CNC(=O)c2cc(C3CC3)nc3ccccc23)COC1 [CBK281752],90
4,C=CCn1c2ccccc2c2nnc(SCC(=O)OCN3C(=O)c4ccccc4C3=O)nc21 [CBK263231],106
5,CCn1c(N2CCC(C(=O)NC(C)C)CC2)nc2ccccc21 [CBK283982],83.8
6,CCN1CC2(CCN(CCCn3c(=O)[nH]c4ccccc43)CC2)c2ccccc21 [CBK131483],93.7
7,CC(C)(C)C(=O)N1CCC(C(=O)NC(c2ccc3c(c2)OCO3)c2ccccn2)CC1 (stereo not shown) [CBK060074],110
8,CC1=C(C#N)c2nc(N)c(C#N)c(C)c2/C1=C\c1ccc(-c2ccc(C(=O)O)cc2)o1 [CBK263415],105
9,CC(Oc1cccc(F)c1)C(=O)N(Cc1cccnc1)CC1CCCO1 (stereo not shown) [CBK305313],108
10,O=C(c1ccc(S(=O)(=O)c2ccc(F)cc2)c([N+](=O)[O-])c1)N1CCCCCC1 [CBK294453],78.3
11,O=C(Nc1nccs1)c1ncn[nH]1 [CBK028821],102
12,COc1ccccc1C1(CCNCc2ccc3c(c2)OCO3)CCOC(C)(C)C1 (stereo not shown) [CBK265599G],92.3
13,Cn1c(Sc2ccc(C#N)cn2)nnc1-c1ccco1 [CBK297756],111
14,COc1cc(C(O)CNC(=O)c2cnc(-c3ccc(F)cc3)c(-c3cccc(N)c3)c2)ccc1O (stereo not shown) [CBK038032],98.8
15,O=C(c1cccc(Br)c1)N1CCN(S(=O)(=O)N2CCOCC2)CC1 [CBK267470],93.2
16,Cc1nn(C)c(C)c1CN(C)C(=O)CCCC(=O)O [CBK286879],82.8
17,Cc1cn2nc(N3CCN(S(=O)(=O)c4ccccc4[N+](=O)[O-])CC3)sc2n1 [CBK298288],111
18,COc1ccc(CN2CCOCC2)cc1Br [CBK027346],80.8
19,COc1ccc([C@@]23CC[C@@H](NC(=O)Nc4ccc(Cl)c(C(F)(F)F)c4)C[C@@H]2N(C)CC3)cc1OC [CBK038224C],98.4

# Same assay, conditions: human, hela cells, % viability, bulk resorufin, single well
row,SMILES,"viability at 28.5 h, 10 µM [%]"
1,CC(C)(C)OC(=O)NCCCCC(=O)N1CCC(C#N)(c2ccccc2)CC1 [CBK091401],89.4
2,Cc1cc(C)cc(N2C(=O)NC(=O)/C(=C\c3ccccc3Br)C2=O)c1 [CBK263588],100
3,CS(=O)(=O)c1ccc(-c2ccc3c(c2)COC2(CCN(C(=O)CC4CCCCC4)CC2)O3)cn1 [CBK160596],93.3
